Measured values from patent publication US20070275962A1, “Heterobicyclic Compounds as Pharmaceutically Active Agents” (GPC BIOTECH AG, priority 2003, published 2007).
Counter-ions that a name gives are not always drawn.

What was measured:
[1] = target: T1, PDGFRbeta GST (Homo sapiens, UniProt P09619); test: General kinase assay: PDGFRbeta; type: biochemical; details: concentration 10 μM; read-out: Inhibitory effect on Target PDGFRbeta GST
T1 construct: GST
Method: (§1) General Assay Protocol for all Kinases [[[…]]] [[[…]]] Reaction Buffer: Final Assay Concentrations: [[[…]]] Pipetting Sequence: • 1) Add 8 μl 50 μM MBP in Reaction Buffer to each well of Assay Plate • 2) Add 10 μl 500 mM EDTA in H2O to C- wells • 3) Add 8 μl 62.5 μCi/ml Adenosine 5'-[γ-^33P]triphosphate+5 μM ATP in Reaction Buffer to each well • 4) Add 8 μl 5 fold concentrated inhibitor in 5% DMSO in Reaction Buffer to each well except to C- and C+ wells • 5) Add 8 μl 5% DMSO in Reaction Buffer to C- and C+ wells • 6) Add 8 μl 5 fold concentrated kinase in Reaction Buffer to each well • 7) Incubate 1 hr at room temperature • 8) Add 10 μl 50 mM EDTA in H2O to each well except to C- wells • 9) Prepare MAPH plates by adding 200 μl 0.75% H3PO4 to each well • 10) Exhaust 0.75% H3PO4 using Millipore vacuum station • 11) Add 60 μl 0.75% H3PO4 to each well of MAPH Filter Plate • 12) Transfer 30 μl sample per well from Assay Plate to corresponding well of MAPH Filter Plate • 13) Incubate 30 min at room temperature • 14) Wash each well of MAPH Filter Plates 3× with 200 μl 0.75% H3PO4 using Millipore vacuum station • 15) Add 20 μl Szintilation Liquid to each well of MAPH Filter Plate • 16) Seal MAPH Filter Plate • 17) Store MAPH Filter Plate 30 min in darkness • 18) Quantify radioactivity

[2] = target: T2, CK1-alpha GST (Homo sapiens, UniProt P48729); test: General kinase assay: CK1-alpha; type: biochemical; details: concentration 10 μM; read-out: Inhibitory effect on Target CK1-alpha GST
T2 construct: GST
Method: as §1

[3] = target: T3, EGFR GST-HIS (Homo sapiens, UniProt P00533); test: General kinase assay: EGFR; type: biochemical; details: concentration 10 μM; read-out: Inhibitory effect on Target EGFR GST-HIS
T3 construct: GST; His
Method: as §1

[4] = target: CDK2/CycA (Homo sapiens, UniProt P24941); test: General kinase assay: CDK2/CycA; type: biochemical; details: concentration 10 μM; read-out: Inhibitory effect on Target CDK2/CycA
Method: as §1

[5] = target: T4, GSK-3beta HIS (Homo sapiens, UniProt P49841); test: General kinase assay: GSK-3beta; type: biochemical; details: concentration 10 μM; read-out: Inhibitory effect on Target GSK-3beta HIS
T4 construct: His
Method: as §1

[6] = target: T5, Kit human GST (Homo sapiens, UniProt P10721); test: General kinase assay: Kit; type: biochemical; details: concentration 10 μM; read-out: Inhibitory effect on Target Kit human GST
T5 construct: GST
Method: as §1

[7] = target: T6, RICK-STREP 1 (Homo sapiens, UniProt O43353); test: General kinase assay: RICK; type: biochemical; details: concentration 10 μM; read-out: Inhibitory effect on Target RICK-STREP 1
T6 construct: Strep
Method: as §1

[8] = target: T7, mycobacterial protein kinase G (PknG) (Mycobacterium tuberculosis, UniProt P9WI73); test: biochemical; details: read-out: Inhibition of PknG (IC50, [μM])
T7 construct: GST; made in house; host or cells: E. coli BL21

[9] = target: T8, c-Src HIS (Homo sapiens, UniProt P12931); test: General kinase assay: c-Src; type: biochemical; details: concentration 10 μM; read-out: Inhibitory effect on Target c-Src HIS
T8 construct: His
Method: as §1

[10] = target: T9, SRPK1 GST (Homo sapiens, UniProt Q96SB4); test: General kinase assay: SRPK1; type: biochemical; details: concentration 10 μM; read-out: Inhibitory effect on Target SRPK1 GST
T9 construct: GST
Method: as §1

[11] = target: T10, cMet GST-HIS (Homo sapiens, UniProt P08581); test: General kinase assay: cMet; type: biochemical; details: concentration 10 μM; read-out: Inhibitory effect on Target cMet GST-HIS
T10 construct: GST; His
Method: as §1

[12] = target: T11, Jnk1a1 HIS (Homo sapiens, UniProt P45983); test: General kinase assay: Jnk1a1; type: biochemical; details: concentration 10 μM; read-out: Inhibitory effect on Target Jnk1a1 HIS
T11 construct: His
Method: as §1

[13] = target: T12, RSK1 act. HIS (Homo sapiens, UniProt Q15418); test: General kinase assay: RSK1; type: biochemical; details: concentration 10 μM; read-out: Inhibitory effect on Target RSK1 act. HIS
T12 construct: His
Method: as §1

[14] = test system: p70S6K HIS; test: General kinase assay: p70S6K; type: biochemical; details: concentration 10 μM
Method: as §1

[15] = target: T13, ROCK2 human HIS (Homo sapiens, UniProt O75116); test: General kinase assay: ROCK2; type: biochemical; details: concentration 10 μM; read-out: Inhibitory effect on Target ROCK2 human HIS
T13 construct: His
Method: as §1

[16] = target: T14, IKKbeta HIS (Homo sapiens, UniProt O14920); test: General kinase assay: IKKbeta; type: biochemical; details: concentration 10 μM; read-out: Inhibitory effect on Target IKKbeta HIS
T14 construct: His
T14 sequence (O14920 1-756): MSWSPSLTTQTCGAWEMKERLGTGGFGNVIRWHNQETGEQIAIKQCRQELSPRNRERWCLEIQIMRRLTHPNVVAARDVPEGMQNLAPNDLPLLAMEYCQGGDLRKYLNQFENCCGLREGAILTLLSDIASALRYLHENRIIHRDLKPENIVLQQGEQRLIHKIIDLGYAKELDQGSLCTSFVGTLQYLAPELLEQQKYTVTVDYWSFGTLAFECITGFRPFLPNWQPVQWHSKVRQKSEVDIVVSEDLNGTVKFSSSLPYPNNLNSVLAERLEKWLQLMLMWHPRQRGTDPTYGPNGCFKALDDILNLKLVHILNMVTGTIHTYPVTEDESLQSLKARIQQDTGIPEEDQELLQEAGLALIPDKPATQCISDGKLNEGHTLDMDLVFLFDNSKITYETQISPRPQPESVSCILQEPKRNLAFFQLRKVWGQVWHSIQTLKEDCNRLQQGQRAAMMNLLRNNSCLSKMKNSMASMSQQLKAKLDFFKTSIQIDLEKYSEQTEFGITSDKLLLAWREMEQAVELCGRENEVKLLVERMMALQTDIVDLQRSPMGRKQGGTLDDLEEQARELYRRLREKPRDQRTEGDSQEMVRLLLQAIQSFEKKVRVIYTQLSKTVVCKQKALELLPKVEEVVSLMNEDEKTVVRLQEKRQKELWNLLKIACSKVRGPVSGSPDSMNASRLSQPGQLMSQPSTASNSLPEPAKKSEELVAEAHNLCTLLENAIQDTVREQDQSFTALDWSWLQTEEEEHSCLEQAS
Method: as §1

[17] = target: T15, AKT1/PKBa act. HIS (Homo sapiens, UniProt P31749); test: General kinase assay (MBP, 33P-ATP, filter plate): AKT1/PKBa; type: biochemical; details: concentration 10 μM; read-out: Inhibitory effect on Target AKT1/PKBa act. HIS
T15 construct: His
Method: as §1

[18] = target: T16, InsR GST (Homo sapiens, UniProt P06213); test: General kinase assay: InsR; type: biochemical; details: concentration 10 μM; read-out: Inhibitory effect on Target InsR GST
T16 construct: GST
Method: as §1

T4 sequence (P49841 whole entry): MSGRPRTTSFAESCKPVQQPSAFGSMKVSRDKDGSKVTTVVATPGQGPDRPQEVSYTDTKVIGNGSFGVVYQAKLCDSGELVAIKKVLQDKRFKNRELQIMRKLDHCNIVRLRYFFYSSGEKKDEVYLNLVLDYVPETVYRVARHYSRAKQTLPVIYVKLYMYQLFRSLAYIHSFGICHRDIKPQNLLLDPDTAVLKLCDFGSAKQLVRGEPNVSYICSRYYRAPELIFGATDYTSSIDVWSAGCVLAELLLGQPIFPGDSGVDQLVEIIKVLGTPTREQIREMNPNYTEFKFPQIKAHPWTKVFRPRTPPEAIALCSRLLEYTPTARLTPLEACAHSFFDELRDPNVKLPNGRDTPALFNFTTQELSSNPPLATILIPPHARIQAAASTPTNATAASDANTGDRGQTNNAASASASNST
T8 sequence (P12931 whole entry): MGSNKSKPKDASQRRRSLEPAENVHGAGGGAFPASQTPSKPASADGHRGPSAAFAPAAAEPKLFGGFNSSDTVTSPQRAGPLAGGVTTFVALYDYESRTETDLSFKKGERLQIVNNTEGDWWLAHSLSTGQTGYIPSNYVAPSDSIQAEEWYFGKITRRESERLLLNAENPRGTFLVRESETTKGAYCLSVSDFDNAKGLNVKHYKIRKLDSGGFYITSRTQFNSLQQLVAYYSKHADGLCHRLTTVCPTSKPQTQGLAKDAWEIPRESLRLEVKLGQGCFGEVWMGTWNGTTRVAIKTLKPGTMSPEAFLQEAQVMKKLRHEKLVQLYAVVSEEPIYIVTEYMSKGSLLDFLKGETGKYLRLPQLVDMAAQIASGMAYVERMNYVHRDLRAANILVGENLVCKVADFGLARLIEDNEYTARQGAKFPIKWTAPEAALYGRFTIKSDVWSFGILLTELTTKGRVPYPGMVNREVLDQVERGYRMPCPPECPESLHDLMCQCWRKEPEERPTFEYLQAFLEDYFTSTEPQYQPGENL
T5 sequence (P10721 26-976): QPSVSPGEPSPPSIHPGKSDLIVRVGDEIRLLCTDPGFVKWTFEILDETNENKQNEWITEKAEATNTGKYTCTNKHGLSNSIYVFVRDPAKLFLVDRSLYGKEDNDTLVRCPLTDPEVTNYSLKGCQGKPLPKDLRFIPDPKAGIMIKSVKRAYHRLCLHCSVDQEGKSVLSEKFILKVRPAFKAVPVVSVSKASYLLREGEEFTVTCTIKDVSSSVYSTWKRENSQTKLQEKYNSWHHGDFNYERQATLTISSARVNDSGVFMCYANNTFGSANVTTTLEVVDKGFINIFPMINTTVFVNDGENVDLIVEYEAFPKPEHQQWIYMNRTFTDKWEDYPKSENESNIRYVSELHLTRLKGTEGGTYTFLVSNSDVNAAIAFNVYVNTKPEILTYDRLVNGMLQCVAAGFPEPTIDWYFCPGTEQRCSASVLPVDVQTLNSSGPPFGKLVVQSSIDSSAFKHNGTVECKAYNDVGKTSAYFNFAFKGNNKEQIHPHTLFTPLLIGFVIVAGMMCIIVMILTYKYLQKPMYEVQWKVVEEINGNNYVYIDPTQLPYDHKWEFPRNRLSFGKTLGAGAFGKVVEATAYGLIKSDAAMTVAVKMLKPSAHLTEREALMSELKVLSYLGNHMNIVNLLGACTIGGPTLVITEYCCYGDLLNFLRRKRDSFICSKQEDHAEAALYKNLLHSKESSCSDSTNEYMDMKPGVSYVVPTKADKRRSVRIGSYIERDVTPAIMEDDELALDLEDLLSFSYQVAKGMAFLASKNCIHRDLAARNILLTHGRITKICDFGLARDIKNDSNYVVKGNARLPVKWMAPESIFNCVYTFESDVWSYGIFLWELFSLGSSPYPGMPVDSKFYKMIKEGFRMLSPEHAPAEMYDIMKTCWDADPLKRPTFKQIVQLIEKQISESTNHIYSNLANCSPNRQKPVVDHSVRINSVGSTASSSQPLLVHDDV
T1 sequence (P09619 33-1106): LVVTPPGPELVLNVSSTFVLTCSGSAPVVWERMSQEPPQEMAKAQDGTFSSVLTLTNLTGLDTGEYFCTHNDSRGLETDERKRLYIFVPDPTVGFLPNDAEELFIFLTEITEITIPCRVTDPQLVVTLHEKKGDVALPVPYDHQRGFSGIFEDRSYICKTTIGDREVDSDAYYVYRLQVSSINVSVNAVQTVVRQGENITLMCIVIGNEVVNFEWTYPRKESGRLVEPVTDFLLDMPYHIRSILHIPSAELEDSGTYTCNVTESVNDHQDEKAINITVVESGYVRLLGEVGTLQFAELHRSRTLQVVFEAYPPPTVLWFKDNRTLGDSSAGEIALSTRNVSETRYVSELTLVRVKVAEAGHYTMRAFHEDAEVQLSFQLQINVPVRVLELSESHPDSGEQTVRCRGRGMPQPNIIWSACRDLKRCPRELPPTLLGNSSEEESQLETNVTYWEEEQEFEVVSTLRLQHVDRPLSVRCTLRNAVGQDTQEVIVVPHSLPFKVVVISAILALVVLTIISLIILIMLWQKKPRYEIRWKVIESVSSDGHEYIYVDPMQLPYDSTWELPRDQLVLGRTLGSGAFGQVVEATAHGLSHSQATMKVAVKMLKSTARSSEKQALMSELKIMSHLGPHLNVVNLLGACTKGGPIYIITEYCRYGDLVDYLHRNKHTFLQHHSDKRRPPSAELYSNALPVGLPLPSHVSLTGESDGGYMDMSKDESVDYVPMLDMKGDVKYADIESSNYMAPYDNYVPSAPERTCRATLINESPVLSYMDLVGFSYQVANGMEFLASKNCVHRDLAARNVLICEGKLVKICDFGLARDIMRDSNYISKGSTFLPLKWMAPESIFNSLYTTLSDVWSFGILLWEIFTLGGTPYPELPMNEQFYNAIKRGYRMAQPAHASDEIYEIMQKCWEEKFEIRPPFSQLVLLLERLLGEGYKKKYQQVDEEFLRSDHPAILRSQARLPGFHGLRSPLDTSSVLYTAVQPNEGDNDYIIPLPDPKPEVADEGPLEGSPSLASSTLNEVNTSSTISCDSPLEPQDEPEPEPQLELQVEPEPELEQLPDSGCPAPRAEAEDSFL
T3 sequence (P00533 25-1210): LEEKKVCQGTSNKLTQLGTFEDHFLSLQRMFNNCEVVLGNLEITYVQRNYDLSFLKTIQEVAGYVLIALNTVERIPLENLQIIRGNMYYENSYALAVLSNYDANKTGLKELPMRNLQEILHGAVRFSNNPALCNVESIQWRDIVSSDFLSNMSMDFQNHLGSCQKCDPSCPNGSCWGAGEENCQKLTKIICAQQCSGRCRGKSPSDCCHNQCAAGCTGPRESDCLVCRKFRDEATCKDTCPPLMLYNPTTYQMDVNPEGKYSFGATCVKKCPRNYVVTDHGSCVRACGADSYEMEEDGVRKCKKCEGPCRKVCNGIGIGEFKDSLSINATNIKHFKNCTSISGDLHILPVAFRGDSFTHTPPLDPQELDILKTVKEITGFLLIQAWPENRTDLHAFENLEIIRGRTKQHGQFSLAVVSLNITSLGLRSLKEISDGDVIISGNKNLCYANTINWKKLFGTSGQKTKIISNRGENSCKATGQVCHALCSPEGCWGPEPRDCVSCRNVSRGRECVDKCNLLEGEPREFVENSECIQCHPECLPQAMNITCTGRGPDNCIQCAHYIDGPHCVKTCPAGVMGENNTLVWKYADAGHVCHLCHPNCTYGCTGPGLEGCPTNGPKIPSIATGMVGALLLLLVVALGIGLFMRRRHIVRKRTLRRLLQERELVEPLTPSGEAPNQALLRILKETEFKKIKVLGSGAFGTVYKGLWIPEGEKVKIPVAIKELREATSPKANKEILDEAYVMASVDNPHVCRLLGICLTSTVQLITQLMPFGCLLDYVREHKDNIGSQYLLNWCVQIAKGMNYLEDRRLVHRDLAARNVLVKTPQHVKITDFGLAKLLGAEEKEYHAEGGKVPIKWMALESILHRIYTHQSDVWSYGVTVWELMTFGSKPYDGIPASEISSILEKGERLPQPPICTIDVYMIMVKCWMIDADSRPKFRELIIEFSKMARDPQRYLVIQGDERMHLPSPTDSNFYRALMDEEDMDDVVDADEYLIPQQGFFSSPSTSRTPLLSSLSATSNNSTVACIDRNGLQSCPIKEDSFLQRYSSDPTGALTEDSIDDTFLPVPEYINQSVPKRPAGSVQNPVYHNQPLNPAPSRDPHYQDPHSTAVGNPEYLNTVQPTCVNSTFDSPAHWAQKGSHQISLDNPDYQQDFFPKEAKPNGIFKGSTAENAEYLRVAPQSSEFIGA
T6 sequence (O43353 whole entry): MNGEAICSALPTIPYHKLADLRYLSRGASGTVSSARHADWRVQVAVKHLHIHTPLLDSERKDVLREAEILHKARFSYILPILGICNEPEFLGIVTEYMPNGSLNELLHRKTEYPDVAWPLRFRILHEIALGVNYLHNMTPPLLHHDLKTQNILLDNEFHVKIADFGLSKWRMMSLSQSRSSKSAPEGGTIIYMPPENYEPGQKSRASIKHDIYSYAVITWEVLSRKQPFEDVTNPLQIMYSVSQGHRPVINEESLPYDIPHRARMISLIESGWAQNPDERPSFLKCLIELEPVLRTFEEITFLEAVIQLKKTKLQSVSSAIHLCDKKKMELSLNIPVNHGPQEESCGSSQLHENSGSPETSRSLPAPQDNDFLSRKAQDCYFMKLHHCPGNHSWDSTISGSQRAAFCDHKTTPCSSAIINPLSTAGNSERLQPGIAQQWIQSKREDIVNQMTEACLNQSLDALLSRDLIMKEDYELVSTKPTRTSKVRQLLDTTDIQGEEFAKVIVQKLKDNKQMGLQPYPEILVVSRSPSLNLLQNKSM
T2 sequence (P48729 whole entry): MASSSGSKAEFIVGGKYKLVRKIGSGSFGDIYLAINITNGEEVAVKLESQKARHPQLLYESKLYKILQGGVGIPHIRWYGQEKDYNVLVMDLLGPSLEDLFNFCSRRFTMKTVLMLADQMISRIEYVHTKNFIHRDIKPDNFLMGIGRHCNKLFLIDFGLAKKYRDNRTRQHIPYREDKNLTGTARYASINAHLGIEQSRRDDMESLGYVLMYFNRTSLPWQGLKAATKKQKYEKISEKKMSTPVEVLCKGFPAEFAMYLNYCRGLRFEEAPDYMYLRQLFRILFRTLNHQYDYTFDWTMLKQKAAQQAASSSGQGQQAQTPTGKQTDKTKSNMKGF

Compound	inhibition at 10 µM [1]	inhibition at 10 µM [2]	inhibition at 10 µM [3]	inhibition at 10 µM [4]	inhibition at 10 µM [5]	inhibition at 10 µM [7]	inhibition at 10 µM [10]	melting point	also measured
NN=C1CCc2c(sc(NC(=O)C3CC3)c2C(N)=O)C1 [Compound D115, 2-(Cyclopropanecarbonyl-amino)-6-hydrazono-4,5,6,7-tetrahydro-benzo[b]thiophene-3-carboxylic acid amide]	> 50%	> 50%	> 50%	> 50%	> 50%	> 50%	–	–	inhibition at 10 µM [6]: > 50%; IC50 [8]: 0.1 to 1 µM
NC(=O)c1c(NC(=O)Nc2ccc(F)cc2)sc2c1CCC(=O)C2 [Compound D121, 2-[3-(4-Fluoro-phenyl)-ureido]-6-oxo-4,5,6,7-tetrahydro-benzo[b]thiophene-3-carboxylic acid amide]	–	> 50%	> 50%	> 50%	> 50%	> 50%	> 50%	–	inhibition at 10 µM [9]: > 50%
NC(=O)c1c(NC(=O)Nc2ccccc2)sc2c1CCC1(C2)OCCO1 (as salt: HCl) [Compound D199, 2-[(Anilinocarbonyl)amino]-4,7-dihydro-5H-spiro[1-benzothiophene-6,2′-[1,3]dioxolane]-3-carboxamide]	–	–	–	–	–	–	–	212 to 213 °C	–
NC(=O)c1c(NC(=O)C2CC2)sc2c1CCC(Br)(Br)C2=O [Compound D67, 6,6-Dibromo-2-(cyclopropanecarbonyl-amino)-7-oxo-4,5,6,7-tetrahydro-benzo[b]thiophene-3-carboxylic acid amide]	–	> 50%	> 50%	> 50%	> 50%	> 50%	> 50%	–	inhibition at 10 µM [11]: > 50%; IC50 [8]: 0.1 to 1 µM
O=C(Nc1sc2c(c1S(=O)(=O)O)CCCC2)C1CC1 [Compound D216, 2-(Cyclopropanecarbonyl-amino)-4,5,6,7-tetrahydro-benzo[b]thiophene-3-sulfonic acid]	–	–	–	–	–	–	–	225 to 230 °C (dec.)	–
NC(=O)c1c(NC(=O)Nc2ccccc2)sc2cc(O)ccc12 [Compound A12, 6-Hydroxy-2-(3-phenyl-ureido)-benzo[b]thiophene-3-carboxylic acid amide]	> 50%	> 50%	> 50%	> 50%	> 50%	> 50%	> 50%	–	inhibition at 10 µM [9]: > 50%; inhibition at 10 µM [12]: > 50%; inhibition at 10 µM [13]: > 50%; Inhibitory effect on Target p70S6K HIS [14]: + (+ = >50% inhibition at concentration 10 μM); inhibition at 10 µM [6]: > 50%; inhibition at 10 µM [15]: > 50%
NC(=O)c1c(NC(=O)C2CC2)sc2c(Cl)c(OCCO)c(Cl)cc12 [Compound A49, 5,7-Dichloro-2-(cyclopropanecarbonyl-amino)-6-(2-hydroxyethoxy)-benzo[b]thiophene-3-carboxylic acid amide]	–	–	–	–	–	–	–	250 to 254 °C	–
NC(=O)c1c(NC(=O)Nc2ccc(F)cc2)sc2c1CCC(O)C2 (stereo not shown) [Compound D142, 2-[3-(4-Fluoro-phenyl)-ureido]-6-hydroxy-4,5,6,7-tetrahydro-benzo[b]thiophene-3-carboxylic acid amide]	–	> 50%	–	> 50%	–	> 50%	> 50%	–	inhibition at 10 µM [16]: > 50%; inhibition at 10 µM [9]: > 50%
NC(=O)c1c(NC(=O)C2CC2)sc2c(O)c(Br)ccc12 [Compound A15, 6-Bromo-2-(cyclopropanecarbonyl-amino)-7-hydroxy-benzo[b]thiophene-3-carboxylic acid amide]	> 50%	> 50%	> 50%	–	> 50%	> 50%	> 50%	–	inhibition at 10 µM [11]: > 50%; inhibition at 10 µM [12]: > 50%; Inhibitory effect on Target p70S6K HIS [14]: + (+ = >50% inhibition at concentration 10 μM)
CC1CC1C(=O)Nc1sc2c(Cl)c(O)ccc2c1C(N)=O (stereo not shown) [Compound A37, 7-Chloro-6-hydroxy-2-[(2-methyl-cyclopropanecarbonyl)-amino]-benzo[b]thiophene-3-carboxylic acid amide]	> 50%	> 50%	> 50%	> 50%	> 50%	> 50%	> 50%	–	inhibition at 10 µM [16]: > 50%; inhibition at 10 µM [12]: > 50%; inhibition at 10 µM [17]: > 50%; inhibition at 10 µM [18]: > 50%; inhibition at 10 µM [13]: > 50%; Inhibitory effect on Target p70S6K HIS [14]: + (+ = >50% inhibition at concentration 10 μM); inhibition at 10 µM [6]: > 50%
CCOC(=O)Nc1sc2c(Cl)c(O)c(Cl)cc2c1C(N)=O [Compound A120, (3-Carbamoyl-5,7-dichloro-6-hydroxy-benzo[b]thiophen-2-yl)-carbamic acid ethyl ester]	–	–	–	–	–	–	–	235 to 240 °C	–
NS(=O)(=O)c1c(NC(=O)C2CC2)sc2c1CCCC2 [Compound D86, Cyclopropanecarboxylic acid (3-sulfamoyl-4,5,6,7-tetrahydro-benzo[b]thiophen-2-yl)-amide]	–	–	–	–	–	–	–	235 to 238 °C (dec.)	–
